Measured values reported in US5164385A, “Azetidine derivatives and hypotensive compositions thereof” (John Wyeth & Brother, Ltd., priority 1990, dated 1992).

How the values were obtained:
5-HT1 receptor = target: T1, 5-HT1 receptor (Rattus norvegicus, UniProt P19327); assay: 5-HT1 receptor agonist activity in vivo: induction of the 5-HT behavioural syndrome in rats; settings: iv, sequential up-down method
T1 construct: measuring their ability to induce the 5-HT behavioural syndrome in rats; from tissue; host or cells: living rats (in vivo, intravenous dosing); endogenous receptor of the central nervous system
T1 sequence (P19327 1-422): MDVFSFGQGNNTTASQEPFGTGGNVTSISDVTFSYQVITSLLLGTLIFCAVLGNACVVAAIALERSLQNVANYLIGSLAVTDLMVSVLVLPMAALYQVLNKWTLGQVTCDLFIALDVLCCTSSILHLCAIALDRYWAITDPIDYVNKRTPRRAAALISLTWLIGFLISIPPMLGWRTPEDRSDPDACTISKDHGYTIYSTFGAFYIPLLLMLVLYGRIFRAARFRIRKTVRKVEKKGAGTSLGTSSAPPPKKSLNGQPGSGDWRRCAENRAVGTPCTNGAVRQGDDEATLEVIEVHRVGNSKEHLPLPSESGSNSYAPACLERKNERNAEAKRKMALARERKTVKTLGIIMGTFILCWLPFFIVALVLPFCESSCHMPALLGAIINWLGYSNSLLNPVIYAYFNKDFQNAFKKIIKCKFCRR
Protocol: The compounds are evaluated for 5-HT1 receptor agonist activity in vivo by measuring their ability to induce the 5-HT behavioural syndrome in rats (A. R. Green, Neuropharmacology, 1984, 23 1521). Compounds which induce 5-HT-related behaviours are adjudged to be `active`, and a sequential up-down method (A. W. Kimball, W. T. Burnett, and D. G. Doherty, Radiation Research, 1957, 7, 1) is used to determine ED50 values for the compounds.

[1] = tested on: arterial blood pressure and heart rate; assay: Hypotensive activity in anaesthetised normotensive rats; assay type: in vivo, rat (Sprague-Dawley); settings: iv
Protocol: The compounds are tested for hypotensive activity in anaesthetised normotensive rats. In this procedure adult male Sprague-Dawley rats weighing 200-400 g are anaesthetised with 70 mg/kg pentobarbitone sodium, i.p. The fermoral (or jugular) vein, the femoral (or carotid) artery, and the trachea are cannulated and the vascular canulae then flushed with 0.3 ml of heparinised saline (125 U/ml). The arterial blood pressure and heart rate are continuously monitored. Top-up doses of 6 or 12 mg/kg anaesthetic are administered as required until a stable base-line is obtained. A cumulative dose-response curve to the test compound is then obtained, using a 5 min dose interval. Each dose is administered in a volume of […] and flushed in with 0.5 ml saline. Systolic, diastolic, and mean arterial blood pressure and heart rate are then calculated 5 min after each dose and compared with the pre-dose value. Mean results from six rats are analysed using analysis of variants. The ED20 (ie the dose giving a 20% fall in mean arterial blood pressure) is also calculated. […] The minimum effective dose of this compound which produced a significant decrease in blood pressure was 1 μg/kg iv, and the ED20 was 5.2 μg/kg iv.

[2] = anaesthetised normotensive male Sprague-Dawley rats, cumulative dose-response, 5 min after each dose

For `Oc1cccc2c1CC(N1CCC1)CC2` (centres unmarked) [Example 3, 7-(1-Azetidinyl)-5,6,7,8-tetrahydro-1-naphthalenol], the ED50 (5-HT1 receptor) was 70 µg/kg, the ED20 ([1]; Rattus norvegicus, 5 min, anaesthetised normotensive rats, read-out: ED20 (dose giving a 20% fall in mean arterial blood pressure)) was 5.2 µg/kg and the minimal effective dose ([1]; Rattus norvegicus, 5 min, anaesthetised normotensive rats, read-out: minimum effective dose which produced a significant decrease in blood pressure) was 1 µg/kg. For the same compound, the “effect on blood pressure” value [1, 2] was “dose-related falls” and the “effect on heart rate” value [1, 2] was “dose-related falls”.
